Experimental findings from patent publication EP0145303A1, “Glycerol derivatives” (ONO PHARMACEUTICAL CO., LTD., priority 1983, dated 1985) are described below.

The target of data set [1] is PAF (10 nM)-induced aggregation (Cavia porcellus, UniProt P21556). The data set can be described thus: Inhibitory effect on PAF-induced platelet aggregation (platelet rich plasma, absorbancy method, aggregometer of Born). Format: cell-based. To be noted: male guinea pig platelet rich plasma. Here is the method: Whole blood of male guinea pig was collected with a 3.8% aqueous solution of trisodium citrate in a proportion of 9:1 (v/v) and the mixture was centrifuged (120 x g) for 10 minutes at room temperature to obtain platelet rich plasma. Using obtained plasma, PAF (10 nM)-induced aggregation was determined by the absorbancy method using an aggrego-meter of Born [cf. J. Physiol., 162, 67 (1962)].
The evaluation is conducted using the concentration of compounds of the present invention required to produce a 50% inhibition of each effect, i.e. IC50.

A further data set concerns mice. The data set can be described thus: Acute toxicity by intravenous administration. The format is in vivo. Particulars: five mice, intravenous to tail vein, dose of 100 mg/Kg. Here is the method:
On the other hand, it was confirmed that the acute toxicity of all extent of the compounds of the present invention was more than 100 mg/Kg by intravenous administration. Therefore, glycerol derivatives of the present invention may be considered to be sufficiently safe and suitable for medical use. For example, the mortality (daed/used) in glycerol derivatives of the present invention, i.e. compounds prepared in Example 4 was 0/5, when glycerol derivatives was intravenous administered to tail vein in five mice at the dose of 100 mg/Kg.

Each structure is given as a SMILES string. pIC50: −log10 of the molar value.

Sequence of PAF (10 nM)-induced aggregation (P21556 whole entry): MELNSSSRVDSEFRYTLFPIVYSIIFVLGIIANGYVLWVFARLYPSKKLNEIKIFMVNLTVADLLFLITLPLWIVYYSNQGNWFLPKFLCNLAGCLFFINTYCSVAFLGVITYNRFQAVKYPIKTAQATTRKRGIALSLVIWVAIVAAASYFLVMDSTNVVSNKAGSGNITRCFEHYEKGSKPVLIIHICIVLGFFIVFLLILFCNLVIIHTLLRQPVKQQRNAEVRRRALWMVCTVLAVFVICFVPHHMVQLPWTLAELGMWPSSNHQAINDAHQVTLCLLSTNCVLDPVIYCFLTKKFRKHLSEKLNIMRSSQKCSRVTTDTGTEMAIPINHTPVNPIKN

Take `CCCCCCCCCCCCCCCCOCC(COCCCc1ccc([N+](C)(C)C)cc1)NC(=O)OCC(C)C` (racemic) [Example 9]: the pIC50 in data set [1] is 5.43.
On the same count and under the same terms, in the case of `CCCCCCCCCCCCCCCCOCC(COc1ccc(CCCC[N+](C)(C)C)cc1)NC(=O)NC` (centres unmarked) [5(a)] it was 5.33; in that of `CCCCCCCCCCCCCCCCOCC(COc1ccc(CCCC[N+](C)(C)C)cc1)OC(C)=O` (centres unmarked) [Example 2], 5.30.
`CCCCCCCCCCCCCCCCOCC(COc1ccc(CCCC[N+](C)(C)C)cc1)NC(=O)OCC(C)C` (centres unmarked) [Example 4]: the “mortality (daed/used)” value with mice is recorded as 0/5.
As to `CCCCCCCCCCCCCCCCOCC(COc1ccc(CCCC[N+](C)(C)C)cc1)NC(C)=O` (centres unmarked) [Example 5], the pIC50 in data set [1] is 5.17.

By pIC50 is commonly meant the IC50 on a negative log10 scale, so that one unit is a factor of ten. A lower pIC50 goes with a large IC50.
